Measured values: patent publication US7585895B2, “Therapeutic substituted cyclopentanes” (Allergan, Inc., priority 2005, dated 2009)

What was measured:
[1] = target: T1, EP4 receptors (Homo sapiens, UniProt P35408); assay: Radioligand binding, [3H]PGE2, EP4 (Ki); details: HEK-293 cells stably expressing EP4, [3H]PGE2
T1 construct: expressed in transfected cells; membrane pellet
Protocol: (§1) HEK-293 cells stably expressing the human or feline FP receptor, or EP1, EP2, or EP4 receptors were washed with TME buffer, scraped from the bottom of the flasks, and homogenized for 30 sec using a Brinkman PT 10/35 polytron. TME buffer was added to achieve a final 40 ml volume in the centrifuge tubes (the composition of TME is 100 mM TRIS base, 20 mM MgCl2, […]; 10N HCl is added to achieve a pH of 7.4).
(§2) The cell homogenate was centrifuged at 19000 r.p.m. for 20 min at 4° C using a Beckman Ti-60 rotor. The resultant pellet was resuspended in TME buffer to give a final 1 mg/ml protein concentration, as determined by Biorad assay. Radioligand binding competition assays vs. [^3H-]17-phenyl PGF2α. (5 nM) were performed in a 100 μl volume for 60 min. Binding reactions were started by adding plasma membrane fraction. The reaction was terminated by the addition of 4 ml ice-cold TRIS-HCl buffer and rapid filtration through glass fiber GF/B filters using a Brandel cell harvester. The filters were washed 3 times with ice-cold buffer and oven dried for one hour.
(§3) [^3H-] PGE2 (specific activity 180 Ci mmol) was used as the radioligand for EP receptors. [^3H] 17-phenyl PGF2α, was employed for FP receptor binding studies. Binding studies employing EP1, EP2, EP4 and FP receptors were performed in duplicate in at least three separate experiments. A 200 μl assay volume was used. Incubations were for 60 min at 25° C. and were terminated by the addition of 4 ml of ice-cold 50 mM TRIS-HCl, followed by rapid filtration through Whatman GF/B filters and three additional 4 ml washes in a cell harvester (Brandel). Competition studies were performed using a final concentration of 5 nM [^3H]-PGE2, or 5 nM [^3H] 17-phenyl PGF2αand non-specific binding determined with 10^−5M of unlabeled PGE2, or 17-phenyl PGF2α, according to receptor subtype studied.

[2] = target: T2, hEP2/Gqs5 (Homo sapiens, UniProt P43116); assay: FLIPR calcium signal, EP2; format: cell-based; details: HEK-293(EBNA), value outside parentheses, read-out: Ca2+ Signal-EC50 (nM) EP2
T2 construct: expressed in transfected cells
Protocol: (§4) HEK-293(EBNA) cells, stably expressing one type or subtype of recombinant human prostaglandin receptors (prostaglandin receptors expressed: hDP/Gqs5; hEP1; hEP2/Gqs5; hEP3A/Gqi5; hEP4/Gqs5; hFP; hIP; hTP), were cultured in 100 mm culture dishes in high-glucose DMEM medium containing 10% fetal bovine serum, 2 mM 1-glutamine, 250 μg/ml geneticin (G418) and 200 μg/ml hygromycin B as selection markers, and 100 units/ml penicillin G, 100 μg/ml streptomycin and 0.25 μg/ml amphotericin B.
(§5) Cells were seeded at a density of 5×10^4 cells per well in Biocoat® Poly-D-lysine-coated black-wall, clear-bottom 96-well plates (Becton-Dickinson) and allowed to attach overnight in an incubator at 37° C. Cells were then washed two times with HBSS-HEPES buffer (Hanks Balanced Salt Solution without bicarbonate and phenol red, 20 mM HEPES, pH 7.4) using a Denley Cellwash plate washer (Labsystems). After 45 minutes of dye-loading in the dark, using the calcium-sensitive dye Fluo-4 AM at a final concentration of 2 μM, plates were washed four times with HBSS-HEPES buffer to remove excess dye leaving 100 μl in each well. Plates were re-equilibrated to 37° C. for a few minutes.
(§6) Cells were excited with an Argon laser at 488 nm, and emission was measured through a 510-570 nm bandwidth emission filter (FLIPR™, Molecular Devices, Sunnyvale, Calif.). Drug solution was added in a 50 μl volume to each well to give the desired final concentration. The peak increase in fluorescence intensity was recorded for each well. On each plate, four wells each served as negative (HBSS-HEPES buffer) and positive controls (standard agonists: BW245C (hDP); PGE2 (HEP1; hEP2/Gqs5; hEP3A/Gqi5; hEP4/Gqs5); PGF2α (hFP); carbacyclin (hIP); U-46619 (hTP), depending on receptor). The peak fluorescence change in each drug-containing well was then expressed relative to the controls.
(§7) Compounds were tested in a high-throughput (HTS) or concentration-response (CoRe) format. In the HTS format, forty-four compounds per plate were examined in duplicates at a concentration of 10^−5 M. To generate concentration-response curves, four compounds per plate were tested in duplicates in a concentration range between 10^−5 and 10^−11 M. The duplicate values were averaged. In either, HTS or CoRe format each compound was tested on at least 3 separate plates using cells from different passages to give an n≧3.

[3] = target: T3, hEP4/Gqs5 (Homo sapiens, UniProt P35408); assay: FLIPR calcium signal, EP4; format: cell-based; details: HEK-293(EBNA)
T3 construct: expressed in transfected cells
Protocol: as §4, §5, §6, §7

[4] = target: T4, EP2 (Homo sapiens, UniProt P43116); assay: cAMP assay, HEK-EBNA cells expressing EP2; format: cell-based; design: expressed in transfected cells; host or cells: HEK-EBNA; details: value in parentheses in EP2 column, read-out: EP2 EC50 (nM), measurement of cAMP (data in parentheses)
Protocol: A 384-well drug plate was prepared to contain 6 test compounds, PGE2 and cAMP in 16 serial dilutions in triplicate, using a Biomek station. HEK-EBNA cells expressing a target PG receptor subtype (EP2 or EP4) were suspended in a stimulation buffer (HBSS, 0.1% BSA, 0.5 mM IBMX and 5 mM HEPES, pH 7.4) in a density of 10^4 cells/5 μl. The reaction was initiated by mixing 5 μL drug dilutions with 5 μl of HEK-EBNA cells in a well, carried out for 30 min at room temperature, and followed by the addition of 5 μl anti-cAMP acceptor beads in the control buffer with Tween-20 (25 mM NaCl, 0.03% Tween-20, 5 mM HEPES, pH7.4). After 30 min in the dark at room temperature, the mixtures were incubated with 15 μl biotinylated-cAMP/strepavidin donor beads in Lysis/Detection buffer (0.1% BSA, 0.3% Tween-20 and 5 mM HEPES, pH7.4) for 45 min at the room temperature. Fluorescence changes were read using a Fusion-alpha HT microplate reader.

[5] = target: T4, EP2; assay: Competition binding, [3H]PGE2, EP2 (Ki); design: expressed in transfected cells; membranes or whole cells; details: HEK 293 cells stably expressing human EP2, [3H]PGE2
Protocol: Competition binding experiments were performed in a medium containing Hank's balanced salt solution, Hepes 20 mM, pH 7.3, membranes (˜60 μg protein) or 2×10^5 cells from HEK 293 cells stably expressing human EP2 receptors, [^3H]PGE2 (10 nM) and various concentrations of test compounds in a total volume of 300 μl. Reaction mixtures were incubated at 23° C. for 60 min, and were filtered over Whatman GF/B filters under vacuum. Filters were washed three times with 5 ml ice-cold buffer containing 50 mM Tris/HCl (pH 7.3). Non-specific binding was estimated in the presence of excess unlabeled PGE2 (10 μM). Binding data fitted to the binding model for a single class of binding sites, using nonlinear regression analysis. IC50 values thus obtained were converted to Ki using the equation of Ki=(IC50/(1+[L]/KD) where [L] represents PGE2 concentration (10 nM) and KD the dissociation constant for [^3H]PGE2 at human EP2 receptors (40 nM).
as §1, §2, §3

[6] = target: T5, hFP (Homo sapiens, UniProt P43088); assay: FLIPR calcium signal, FP; format: cell-based; details: HEK-293(EBNA)
T5 construct: expressed in transfected cells
Protocol: as §4, §5, §6, §7

[7] = target: T6, hEP1 (Homo sapiens, UniProt P34995); assay: FLIPR calcium signal, EP1; format: cell-based; details: HEK-293(EBNA)
T6 construct: expressed in transfected cells
T6 sequence (P34995 1-402): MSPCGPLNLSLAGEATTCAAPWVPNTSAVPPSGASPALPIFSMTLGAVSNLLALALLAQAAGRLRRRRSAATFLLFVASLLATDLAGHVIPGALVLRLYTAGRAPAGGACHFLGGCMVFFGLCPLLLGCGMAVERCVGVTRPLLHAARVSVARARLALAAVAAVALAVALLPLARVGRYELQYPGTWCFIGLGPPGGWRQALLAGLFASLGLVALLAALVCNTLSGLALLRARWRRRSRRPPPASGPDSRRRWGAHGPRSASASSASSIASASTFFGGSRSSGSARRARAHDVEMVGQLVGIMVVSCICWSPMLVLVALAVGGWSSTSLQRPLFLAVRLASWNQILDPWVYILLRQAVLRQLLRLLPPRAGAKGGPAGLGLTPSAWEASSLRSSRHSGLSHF
Protocol: as §4, §5, §6, §7

[8] = target: T7, hEP3A/Gqi5 (Homo sapiens, UniProt P43115); assay: FLIPR calcium signal, EP3; format: cell-based; details: HEK-293(EBNA)
T7 construct: expressed in transfected cells
T7 sequence (P43115 1-390): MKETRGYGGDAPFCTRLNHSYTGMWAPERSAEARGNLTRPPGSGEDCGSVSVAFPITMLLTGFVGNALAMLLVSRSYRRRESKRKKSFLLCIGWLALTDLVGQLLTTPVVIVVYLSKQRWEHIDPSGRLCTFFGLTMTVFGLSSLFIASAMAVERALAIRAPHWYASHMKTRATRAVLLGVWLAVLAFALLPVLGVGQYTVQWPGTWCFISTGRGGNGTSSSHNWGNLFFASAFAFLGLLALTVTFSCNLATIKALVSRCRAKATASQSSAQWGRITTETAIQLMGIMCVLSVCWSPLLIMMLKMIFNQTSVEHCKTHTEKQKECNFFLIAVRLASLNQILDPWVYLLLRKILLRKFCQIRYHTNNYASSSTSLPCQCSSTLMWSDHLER
Protocol: as §4, §5, §6, §7

[9] = target: T8, hTP (Homo sapiens, UniProt P21731); assay: FLIPR calcium signal, TP; format: cell-based; details: HEK-293(EBNA)
T8 construct: expressed in transfected cells
T8 sequence (P21731 1-343): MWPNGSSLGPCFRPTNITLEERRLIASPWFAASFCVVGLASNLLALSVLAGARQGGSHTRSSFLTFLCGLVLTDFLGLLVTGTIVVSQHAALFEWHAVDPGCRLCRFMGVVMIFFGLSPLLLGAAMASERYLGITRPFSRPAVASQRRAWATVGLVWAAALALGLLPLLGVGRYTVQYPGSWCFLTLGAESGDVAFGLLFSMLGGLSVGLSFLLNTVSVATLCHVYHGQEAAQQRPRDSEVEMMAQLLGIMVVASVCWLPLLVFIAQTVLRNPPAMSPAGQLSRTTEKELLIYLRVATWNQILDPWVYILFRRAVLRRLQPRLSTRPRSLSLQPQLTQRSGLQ
Protocol: as §4, §5, §6, §7

[10] = target: T9, hIP (Homo sapiens, UniProt P43119); assay: FLIPR calcium signal, IP; format: cell-based; details: HEK-293(EBNA)
T9 construct: expressed in transfected cells
Protocol: as §4, §5, §6, §7

[11] = target: T10, hDP/Gqs5 (Homo sapiens, UniProt Q13258); assay: FLIPR calcium signal, DP; format: cell-based; details: HEK-293(EBNA)
T10 construct: expressed in transfected cells
T10 sequence (Q13258 1-359): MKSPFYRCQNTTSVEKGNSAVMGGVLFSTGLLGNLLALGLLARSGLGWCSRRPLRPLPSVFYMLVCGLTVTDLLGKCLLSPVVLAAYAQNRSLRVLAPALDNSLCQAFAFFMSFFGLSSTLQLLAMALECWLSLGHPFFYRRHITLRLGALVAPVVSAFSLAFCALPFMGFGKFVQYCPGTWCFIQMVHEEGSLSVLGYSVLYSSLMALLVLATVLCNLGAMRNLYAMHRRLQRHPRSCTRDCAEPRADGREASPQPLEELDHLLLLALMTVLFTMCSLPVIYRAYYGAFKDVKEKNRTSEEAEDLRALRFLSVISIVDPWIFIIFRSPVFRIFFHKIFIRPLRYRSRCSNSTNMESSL
Protocol: as §4, §5, §6, §7

T2 sequence (P43116 whole entry): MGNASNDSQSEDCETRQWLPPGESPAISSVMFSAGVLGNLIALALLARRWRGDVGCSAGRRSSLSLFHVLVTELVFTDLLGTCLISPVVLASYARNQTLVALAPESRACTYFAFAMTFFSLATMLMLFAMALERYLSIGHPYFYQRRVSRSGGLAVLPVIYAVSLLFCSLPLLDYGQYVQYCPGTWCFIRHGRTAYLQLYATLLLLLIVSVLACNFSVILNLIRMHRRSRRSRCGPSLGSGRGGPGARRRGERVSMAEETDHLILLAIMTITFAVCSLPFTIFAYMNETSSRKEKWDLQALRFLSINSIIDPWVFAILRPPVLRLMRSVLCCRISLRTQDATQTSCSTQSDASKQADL
T3 sequence (P35408 whole entry): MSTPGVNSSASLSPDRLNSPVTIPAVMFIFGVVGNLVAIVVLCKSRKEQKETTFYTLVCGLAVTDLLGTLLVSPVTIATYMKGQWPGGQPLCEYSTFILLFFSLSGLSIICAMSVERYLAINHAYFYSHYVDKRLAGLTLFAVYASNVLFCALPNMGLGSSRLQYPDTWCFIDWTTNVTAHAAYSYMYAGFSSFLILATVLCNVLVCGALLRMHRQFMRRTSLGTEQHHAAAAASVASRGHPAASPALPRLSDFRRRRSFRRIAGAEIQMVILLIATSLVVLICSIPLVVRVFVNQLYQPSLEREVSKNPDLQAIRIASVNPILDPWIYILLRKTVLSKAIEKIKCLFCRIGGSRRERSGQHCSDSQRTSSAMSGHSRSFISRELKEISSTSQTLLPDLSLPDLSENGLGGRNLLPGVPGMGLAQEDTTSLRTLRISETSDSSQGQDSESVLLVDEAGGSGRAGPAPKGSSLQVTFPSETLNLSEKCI
T4 sequence (P43116 whole entry): as the sequence (P43116 whole entry) above
T9 sequence (P43119 whole entry): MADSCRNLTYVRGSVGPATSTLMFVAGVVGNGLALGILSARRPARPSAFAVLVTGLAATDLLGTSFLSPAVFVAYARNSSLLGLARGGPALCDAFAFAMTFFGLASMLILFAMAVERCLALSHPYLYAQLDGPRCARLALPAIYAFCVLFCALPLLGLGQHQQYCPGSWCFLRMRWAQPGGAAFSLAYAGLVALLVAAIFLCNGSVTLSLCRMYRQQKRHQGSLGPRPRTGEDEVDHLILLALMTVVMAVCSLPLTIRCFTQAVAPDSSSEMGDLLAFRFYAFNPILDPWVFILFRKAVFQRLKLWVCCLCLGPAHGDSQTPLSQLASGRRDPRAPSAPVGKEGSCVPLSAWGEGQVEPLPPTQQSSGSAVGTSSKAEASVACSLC
T5 sequence (P43088 whole entry): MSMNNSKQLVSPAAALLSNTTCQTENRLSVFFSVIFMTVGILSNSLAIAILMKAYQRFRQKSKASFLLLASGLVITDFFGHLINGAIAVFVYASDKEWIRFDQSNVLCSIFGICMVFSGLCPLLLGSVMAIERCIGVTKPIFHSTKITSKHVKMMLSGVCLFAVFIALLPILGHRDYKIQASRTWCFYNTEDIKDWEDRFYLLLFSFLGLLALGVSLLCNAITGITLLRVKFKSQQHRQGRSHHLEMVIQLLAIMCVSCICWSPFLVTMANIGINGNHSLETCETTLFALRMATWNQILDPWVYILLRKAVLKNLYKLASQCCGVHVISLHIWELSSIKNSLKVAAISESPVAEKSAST
T1 sequence (P35408 whole entry): as the sequence (P35408 whole entry) above

Row | Ki [1] [nM] | EC50 [2] [nM] | EC50 ([3]; read-out: Ca2+ Signal-EC50 (nM) EP4) [nM] | EC50 [4] [nM] | Ki [5] [nM] | Ca2+ Signal-EC50 (nM) FP [6] | EC50 ([7]; read-out: Ca2+ Signal-EC50 (nM) EP1) [nM] | EC50 ([8]; read-out: Ca2+ Signal-EC50 (nM) EP3) [nM] | Ca2+ Signal-EC50 (nM) EP4 [3] | Ca2+ Signal-EC50 (nM) TP [9] | Ca2+ Signal-EC50 (nM) IP [10] | Ca2+ Signal-EC50 (nM) DP [11] | Ca2+ Signal-EC50 (nM) EP1 [7] | Ca2+ Signal-EC50 (nM) EP3 [8] | Structure (SMILES)
1 | 6290 | > 10000 | > 10000 | 815 | 1050 |  |  |  |  |  |  |  |  |  | CC(C)(C)CCCC(O)c1ccc([C@@H]2[C@@H](C/C=C\CCCC(=O)O)[C@H](Cl)C[C@H]2O)cc1 (stereo partly drawn) [Entry 19, (Z)-7-{(1R,2S,3R,5R)-5-Chloro-3-hydroxy-2-[4-(1-hydroxy-5,5-dimethyl-hexyl)-phenyl]-cyclopentyl}-hept-5-enoic acid]
2 |  | 2450 |  |  |  | not active | 917 | 4150 | not active | not active | not active | not active |  |  | CCCCCC(O)c1ccc([C@@H]2[C@@H](CCCc3cccc(C(=O)O)c3)[C@H](Cl)C[C@H]2O)cc1 (stereo partly drawn) [Entry 1, 3-(3-{(1R,2S,3R,5R)-5-Chloro-3-hydroxy-2-[4-(1-hydroxy-hexyl)-phenyl]-cyclopentyl}-propyl)-benzoic acid]
3 |  | 3960 |  |  |  | not active |  |  | not active | not active | not active | not active | not active | not active | CCCCCC(O)c1ccc([C@@H]2[C@@H](C/C=C\CCCC(=O)OC)[C@H](Cl)C[C@H]2O)cc1 (mixture of isomers) [Entry 10, (Z)-7-{(1R,2S,3R,5R)-5-Chloro-3-hydroxy-2-[4-(1-hydroxy-hexyl)-phenyl]-cyclopentyl}-hept-5-enoic acid methyl ester]
